The text below walks through data of US11098061B2 (Celgene CAR LLC, priority 2013, dated 2021).

Assay [1] concerns the target T1, MK2 (Homo sapiens (Human), UniProt P49137). In words: MK2 modification assessment by whole protein mass spectrometry. Format: binding. The conditions noted are these: intact MK2, 60 min, 10-fold excess of compound to protein. An outline of the steps: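 MK2 treated with compound is analysed intact by MALDI-TOF after C4 cleanup in sinapinic acid matrix. Percent modification is the centroid mass shift against control MK2 divided by compound mass.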

The target of assay [2] is T1, MK2. In words: MK2 cellular assay (Hsp27 phosphorylation in Thp-1 cells). Format: cell-based. The conditions noted are these: differentiated Thp-1 cells, compound 1 hour, 50 ng/ml LPS 15 minutes, phosphorylation of Hsp27; read-out: MK2EC50. On the procedure: Compounds were assayed in Thp-1 human acute monocytic leukemia cells to measure inhibition of MK2 activity. Thp-1 were grown in suspension in T225 flasks. Two days prior to assay, Thp-1 cells were spun down, counted and plated at 1×10^6 cells per well of a 12 well plate in complete media containing 10 ng/ml PMA (phorbol myristate acetate) to differentiate the cells. On day of assay, cells were washed with complete media, and compound was added to differentiated Thp-1 cells for 1 hour. Cells were washed again, and complete media containing 50 ng/ml LPS (lipopolysaccharide) was added. After 15 minutes, cells were washed once with PBS and lysed on ice with BioRad Bioplex lysis buffer. 20 μg total protein from lysates were loaded on gel and blots were probed for phosphorylation of the MK2 substrate Hsp27. Dose response inhibition of MK2 signaling in differentiated Thp-1 cells was used to determine the EC50 for compounds reported in Table A in the column entitled “MK2 EC50.”

Assay [3] addresses p38a activated, mitogen-activated protein kinase-activated protein kinase 2 (MAPKAP-K2 or MK-2) enzyme (Homo sapiens (Human), UniProt P49137). In words: MK2 Omnia continuous-read kinase assay for compound potency. It is filed as biochemical. As to conditions: [MK-2]=0.4 nM, [ATP]=1.0 mM, [ST3-Sox]=10 μM. An outline of the steps: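 Continuous Omnia fluorescence read (λex360/λem485) every 71 s after starting with 0.4 nM MK-2, with 1.0 mM ATP (appKM 8-10 μM) and 10 μM ST3-Sox substrate.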

The term IC50 denotes the concentration that inhibits the measured activity by half.

T1 sequence (P49137 whole entry): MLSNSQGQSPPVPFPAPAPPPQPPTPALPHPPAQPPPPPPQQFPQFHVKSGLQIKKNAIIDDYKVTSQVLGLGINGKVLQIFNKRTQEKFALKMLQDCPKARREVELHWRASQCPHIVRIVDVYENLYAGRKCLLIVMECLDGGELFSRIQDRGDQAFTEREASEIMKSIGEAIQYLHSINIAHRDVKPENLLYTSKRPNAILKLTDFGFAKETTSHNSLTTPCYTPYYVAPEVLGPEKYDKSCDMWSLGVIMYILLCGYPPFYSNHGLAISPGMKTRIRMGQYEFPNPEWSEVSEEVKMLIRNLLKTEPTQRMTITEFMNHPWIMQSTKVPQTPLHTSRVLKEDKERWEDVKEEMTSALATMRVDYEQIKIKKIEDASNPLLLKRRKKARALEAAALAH
Sequence of p38a activated, mitogen-activated protein kinase-activated protein kinase 2 (MAPKAP-K2 or MK-2) enzyme (P49137 whole entry): as above

Take `C=CC(=O)Nc1cc(-c2cc3c(cn2)CCc2c-3[nH]c3c2C(=O)NCC3)cnc1N1CCN(C)CC1` [II-26, N-(2-(4-methylpiperazin-1-yl)-5-(7-oxo-6,7,8,9,10,11-hexahydro-SH-pyrido[3′,4′:4,5]pyrrolo[2,3-f]isoquinolin-2-yl)pyridin-3-yl)acrylamide]: the “MK2 Mass Mod” value in assay [1] was “E (mass modification of ≥70%)”. In addition, the EC50 in assay [2] fell in the range of 101 to 500 nM. In assay [3], the half-maximal inhibitory concentration (IC50) was less than 100 nM.
The matching figures for `C=CC(=O)Nc1cc(-c2cc3c(ccc4c5c([nH]c43)CCC5=O)cn2)ccc1N1CCN(C)CC1` [II-e-4, N-(2-(4-methylpiperazin-1-yl)-5-(7-oxo-7,8,9,10-tetrahydrocyclopenta[4,5]pyrrolo[2,3-f]isoquinolin-2-yl)phenyl)acrylamide]: “E (mass modification of ≥70%)”, less than 100 nM and less than 100 nM.
The matching figures for `C=CC(=O)N1CCOc2ccc(-c3cc4c(ccc5c6c([nH]c54)CCC6=O)cn3)cc21` [II-e-8, 2-(4-acryloyl-3,4-dihydro-2H-benzo[b][1,4]oxazin-6-yl)-8,9-dihydrocyclopenta[4,5]pyrrolo[2,3-f]isoquinolin-7(10H)-one]: “E (mass modification of ≥70%)”, more than 1000 nM and less than 100 nM.
For `C=CC(=O)Nc1cc(-c2cc3c(ccc4c5c(n(C)c43)CCC5=O)cn2)ccc1N1CCN(C)CC1` [II-e-15, N-(5-(10-methyl-7-oxo-7,8,9,10-tetrahydrocyclopenta[4,5]pyrrolo[2,3-f]isoquinolin-2-yl)-2-(4-methylpiperazin-1-yl)phenyl)acrylamide], in that order: “E (mass modification of ≥70%)”, 101 to 500 nM and less than 100 nM.
Regarding `C=CC(=O)N1CC(C)Oc2ccc(-c3cc4c(ccc5c6c([nH]c54)CCC6=O)cn3)cc21` (stereo not drawn) [II-e-17, 2-(4-acryloyl-2-methyl-3,4-dihydro-2H-benzo[b][1,4]oxazin-6-yl)-8,9-dihydrocyclopenta[4,5]pyrrolo[2,3-f]isoquinolin-7(10H)-one], in assay [1], the “MK2 Mass Mod” value is listed as “E (mass modification of ≥70%)”. Moreover, the EC50 in assay [2] lay in the range of 501 to 999 nM. For the same compound, in assay [3], the concentration for half-maximal inhibition (IC50) was less than 100 nM.
For `C=CC(=O)Nc1cc(-c2cc3c(ccc4c5c([nH]c43)CCC5=O)cn2)ccc1Cl` [II-e-20, N-(2-chloro-5-(7-oxo-7,8,9,10-tetrahydrocyclopenta[4,5]pyrrolo[2,3-f]isoquinolin-2-yl)phenyl)acrylamide], in that order: “E (mass modification of ≥70%)”, 101 to 500 nM and less than 100 nM.
The matching figures for `C=CC(=O)Nc1cc(-c2cc3c(ccc4c5c(n(C)c43)CCC5=O)cn2)cnc1OC` [II-e-21, N-(2-methoxy-5-(10-methyl-7-oxo-7,8,9,10-tetrahydrocyclopenta[4,5]pyrrolo[2,3-f]isoquinolin-2-yl)pyridin-3-yl)acrylamide]: “E (mass modification of ≥70%)”, more than 1000 nM and 501 to 999 nM.
For the compound `C=CC(=O)Nc1cc(-c2cc3c(ccc4c5c([nH]c43)CCC5=O)cn2)ccc1N1CCN(C(C)=O)CC1` [II-e-23, N-(2-(4-acetylpiperazin-1-yl)-5-(7-oxo-7,8,9,10-tetrahydrocyclopenta[4,5]pyrrolo[2,3-f]isoquinolin-2-yl)phenyl)acrylamide], in assay [1], the “MK2 Mass Mod” value is “E (mass modification of ≥70%)”. In addition, the EC50 in assay [2] lay in the range of 501 to 999 nM. In addition, the half-inhibitory concentration (IC50) in assay [3] was less than 100 nM.
For `C=CC(=O)Nc1cc(-c2ccc3c(ccc4sc5c(c43)NC[C@@H](C)NC5=O)n2)cnc1C` [III-1, (R)—N-(2-methyl-5-(10-methyl-8-oxo-9,10,11,12-tetrahydro-8H-[1,4]diazepino[5′,6′:4,5]thieno[3,2-f]quinolin-3-yl)pyridin-3-yl)acrylamide], in that order: “E (mass modification of ≥70%)”, less than 100 nM and less than 100 nM.
The matching figures for `C=CC(=O)Nc1cc(NC(=O)c2ccc3sc4c(c3c2)NC[C@@H](C)NC4=O)ccc1N1CCCC1` [III-3, (R)—N-(3-acrylamido-4-(pyrrolidin-1-yl)phenyl)-3-methyl-5-oxo-2,3,4,5-tetrahydro-1H-benzo[4,5]thieno[3,2-e][1,4]diazepine-9-carboxamide]: “E (mass modification of ≥70%)”, less than 100 nM and less than 100 nM.
The matching figures for `C=CC(=O)Nc1cc(NC(=O)c2ccc3sc4c(c3c2)NC[C@@H](C)NC4=O)ccc1N1CCNCC1` [III-5, (R)—N-(3-acrylamido-4-(piperazin-1-yl)phenyl)-3-methyl-5-oxo-2,3,4,5-tetrahydro-1H-benzo[4,5]thieno[3,2-e][1,4]diazepine-9-carboxamide]: “E (mass modification of ≥70%)”, more than 1000 nM and less than 100 nM.
Consider `C=CC(=O)Nc1cc(NC(=O)c2ccc3sc4c(c3c2)NC[C@@H](C)NC4=O)ccc1F` [III-6, (R)—N-(3-acrylamido-4-fluorophenyl)-3-methyl-5-oxo-2,3,4,5-tetrahydro-1H-benzo[4,5]thieno[3,2-e][1,4]diazepine-9-carboxamide], for which the “MK2 Mass Mod” value in assay [1] is listed as “E (mass modification of ≥70%)”. Further, the EC50 in assay [2] is less than 100 nM. The concentration for half-maximal inhibition (IC50) in assay [3] is less than 100 nM.
For the compound `C=CC(=O)Nc1cc(NC(=O)c2ccc3sc4c(c3c2)NC[C@@H](C)NC4=O)ccc1OCCOC` [III-7, (R)—N-(3-acrylamido-4-(2-methoxyethoxy)phenyl)-3-methyl-5-oxo-2,3,4,5-tetrahydro-1H-benzo[4,5]thieno[3,2-e][1,4]diazepine-9-carboxamide], the “MK2 Mass Mod” value in assay [1] was “E (mass modification of ≥70%)”. Besides, the EC50 in assay [2] was more than 1000 nM. For the same compound, the half-inhibitory concentration (IC50) in assay [3] is less than 100 nM.
The matching figures for `C=CC(=O)Nc1ccccc1NC(=O)c1ccc2sc3c(c2c1)NC[C@@H](C)NC3=O` [III-10, (R)—N-(2-acrylamidophenyl)-3-methyl-5-oxo-2,3,4,5-tetrahydro-1H-benzo[4,5]thieno[3,2-e][1,4]diazepine-9-carboxamide]: “E (mass modification of ≥70%)”, more than 1000 nM and 101 to 500 nM.
For `C=CC(=O)N1CCOc2ccc(NC(=O)c3ccc4sc5c(c4c3)NC[C@@H](C)NC5=O)cc21` [III-11, (R)—N-(4-acryloyl-3,4-dihydro-2H-benzo[b][1,4]oxazin-6-yl)-3-methyl-5-oxo-2,3,4,5-tetrahydro-1H-benzo[4,5]thieno[3,2-e][1,4]diazepine-9-carboxamide], in that order: “E (mass modification of ≥70%)”, less than 100 nM and less than 100 nM.
For `C=CC(=O)Nc1cccc(NC(=O)c2ccc3sc4c(c3c2)NC[C@@H](C)NC4=O)c1` [III-12, (R)—N-(3-acrylamidophenyl)-3-methyl-5-oxo-2,3,4,5-tetrahydro-1H-benzo[4,5]thieno[3,2-e][1,4]diazepine-9-carboxamide], in that order: “F (mass modification of 31-69%)”, 501 to 999 nM and less than 100 nM.
In the case of `C=CC(=O)Nc1cc(-c2ccc3c(ccc4sc5c(c43)NC[C@@H](C)NC5=O)n2)ccc1F` [III-13, (R)—N-(2-fluoro-5-(10-methyl-8-oxo-9,10,11,12-tetrahydro-8H-[1,4]diazepino[5′,6′:4,5]thieno[3,2-f]quinolin-3-yl)phenyl)acrylamide], the “MK2 Mass Mod” value in assay [1] is “F (mass modification of 31-69%)”. For the same compound, in assay [2], the EC50 was less than 100 nM. Further, the IC50 in assay [3] was less than 100 nM.
For `C=CC(=O)N1C[C@@H](C)Oc2ccc(NC(=O)c3ccc4sc5c(c4c3)NC[C@@H](C)NC5=O)cc21` [III-31, (R)—N—((R)-4-acryloyl-2-methyl-3,4-dihydro-2H-benzo[b][1,4]oxazin-6-yl)-3-methyl-5-oxo-2,3,4,5-tetrahydro-1H-benzo[4,5]thieno[3,2-e][1,4]diazepine-9-carboxamide], in assay [1], the “MK2 Mass Mod” value is reported as “E (mass modification of ≥70%)”. For the same compound, the EC50 in assay [2] is less than 100 nM. Further, the half-maximal inhibitory concentration (IC50) in assay [3] was less than 100 nM.
Consider `C=CC(=O)N1CCC[C@@H](NC(=O)c2ccc3sc4c(c3c2)NC[C@@H](C)NC4=O)C1` [III-42], for which the “MK2 Mass Mod” value in assay [1] is given as “E (mass modification of ≥70%)”. Also, in assay [2], the EC50 was more than 1000 nM. Moreover, in assay [3], the half-inhibitory concentration (IC50) is less than 100 nM.
For `C=CS(=O)(=O)N1CCC[C@@H](NC(=O)c2ccc3sc4c(c3c2)NC[C@@H](C)NC4=O)C1` [III-44], in that order: “E (mass modification of ≥70%)”, 101 to 500 nM and less than 100 nM.
The matching figures for `C=CC(=O)N1CCCC(NC(=O)c2ccc3sc4c(c3c2)NC[C@@H](C)NC4=O)C1` (stereo partly drawn) [III-51, (3R)—N-(1-acryloylpiperidin-3-yl)-3-methyl-5-oxo-2,3,4,5-tetrahydro-1H-benzo[4,5]thieno[3,2-e][1,4]diazepine-9-carboxamide]: “E (mass modification of ≥70%)”, less than 100 nM and less than 100 nM.
